According to ChEMBL document CHEMBL5532707, “SETDB1 as a cancer target: challenges and perspectives in drug design” (RSC Med Chem, 2024):

Assays:
[1] = cells; settings: Homo sapiens, MDA-MB-231, 48 h
Description: Downregulation of H3K9me2 level in human MDA-MB-231 cells measured after 48 hrs by Western blot analysis

[2] = tested on: MDA-MB-231; experiment: Antiproliferative activity against human MDA-MB-231 cells by MTT assay; assay type: functional, cell-based

| Compound | IC50 [1] [nM] | EC50 [2] [nM] |
| --- | --- | --- |
| COc1cc2c(NC3CCN(C(C)C)CC3)nc(C3CCCCC3)nc2cc1OCCCN1CCCC1 | 81 |  |
| COc1cc2nc(N3CCCN(C)CC3)nc(NC3CCN(Cc4ccccc4)CC3)c2cc1OC | 500 | 2700 |
